Experimental data published in US5811073A, “Method for radioisotopic detection and localization of inflammation in a host” (President and Fellows of Harvard College, priority 1995, dated 1998).

How the values were obtained:
[1] = test system: bacterial (E. coli) inflammatory lesions (pus capsule); test: Biodistribution (pus capsule to contralateral tissue ratio) in rats with bacterial infection; assay type: in vivo
Method: (§1) A frozen sample of E. coli bacteria (clinical isolate; ATCC 9339) was used to inoculate a 10 ml trypticase soy medium (trypticase soy broth, BBL #11768, 30 g/L water), and the tube was incubated overnight at […] This culture was used to grow single colonies by streaking the sample on agar plates (100 mm petri dishes each containing 15 ml of […] in the same medium). Good colonies develop in 10-11 hours at 37° C. The agar plates containing bacterial colonies were stored upside down at 4° C. A single colony of bacteria from the agar plate was used to inoculate 10 ml trypticase soy medium, and the tube was incubated overnight at 37° C. with vigorous shaking. Two ml of this overnight culture was transferred into 100 ml trypticase soy medium and the sample incubated at 37° C. with vigorous shaking until the culture reached an OD600 of ~0.8 (in about 2 hrs). This 100 ml culture contained ~6.4×10^10 bacterial cells (1 OD600 =8×10^8 cells/ml).
(§2) The culture was centrifuged at 5500 rpm for 5 min at 4° C. in a Sorvall SS-34 rotor, the bacterial pellet resuspended in saline to give ~2.5×10^9 bacteria/ml, and 0.1 ml of resuspended cells injected into the left thigh muscle of each anesthetized rat.
No-carrier added radioiodinated deoxyuridine (^125 IUdR) was synthesized by the method described in the above disclosure. Commercially available gallium-67 citrate of known biodistribution characteristics was obtained, for comparison to ^125 IUdR. 24 hrs after each rat described in Example 2 received an intramuscular injection of E. coli or after each rat described in Example 1 received an intramuscular injection of turpentine oil (to permit comparison of activity in a bacterial inflammation lesions to activity in a sterile inflammation lesions) in the left rear thigh, each rat received either ^125 IUdR (about 5 μCi/rat) or gallium-67 citrate (about 10 μCi/rat) suspended in 0.1 ml saline, by injection into the tail vein.
At one, three and 24 hrs after ^125 IUdR or gallium-67 citrate administration, the animals from each group were anesthetized, blood collected via cardiac puncture, urine aspirated from the urinary bladder, and the rats humanely sacrificed. The biodistribution of each radiopharmaceutical (measured as a function of the % injected dose/gram body weight) was then determined in various normal tissues and organs, as well as the left and right legs, the pus capsule formed within the leg and in contralateral muscle tissues (i.e., background tissues unaffected by inflammation) of equivalent weight.
To determine the distribution of each radiopharmaceutical in various tissues of each rat (i.e., the "biodistribution" of each radiopharmaceutical), samples of background tissues and organs (blood, lung, liver, spleen, kidney, muscle and intestine), of target tissue (the pus capsule formed in the leg) and of contralateral muscle tissue (background tissue adjacent to target tissue) were obtained from each rat and weighed. Radioactivity in each sample was measured in a well-type gamma counter (from LKB, Wallac Oy, Finland). To correct for radioactive decay and permit calculation of activity in each organ or tissue as a fraction of the injected dosage of radiopharmaceutical, aliquots of the injected doses were counted at the same time that radioactivity in each sample was determined. The results were measured as a function of the percentage of injected dose/gram (% ID/g). For further reference regarding measurements of biodistribution of radiopharmaceuticals, particularly in blood, those of ordinary skill in the art may wish to refer to Baker et al., "The Laboratory Rat" (Acad.Press N.Y., 1980).
Ab = %ID/g over contralateral muscle

[2] = test system: sterile inflammatory lesions (pus capsule; turpentine oil); test: Biodistribution (pus capsule to contralateral tissue ratio) in rats with sterile inflammation
[3] = test system: sterile inflammatory lesions (pus capsule; turpentine oil); test: Gamma camera imaging of rats with sterile inflammation; assay type: in vivo, Male Sprague-Dawley rats; conditions: for Figure of Merit (FOM), equation (1): 0.2 mCi ^67 Ga-citrate; for Figure of Merit (FOM), equation (1) / Pus Capsule to Contralateral Tissue (T/B) Ratio, gamma camera imaging: 1.5 mCi/rat ^123 IUdR; for Figure of Merit (FOM), equation (1) / Pus Capsule to Contralateral Tissue (T/B) Ratio, gamma camera imaging / Figure of Merit (FOM), equation (2): n=4, mean ± SD; for Pus Capsule to Contralateral Tissue (T/B) Ratio, gamma camera imaging: 0.2 mCi/rat ^67 Ga
Method: Male Sprague-Dawley rats weighing between 150-200g were obtained from the Charles River Breeding Laboratories in Burlington, Mass. […] To anaesthetize the animals during testing, ketamine (40 mg/kg) and xylazine (10 mg/kg) were administered intra peritoneally (1.0 ml/kg) prior to surgical procedures. For the imaging studies, each animal received 1.5 ml/kg of a mixture of ketamine (75 mg/kg), xylazine (39 mg/kg) and acepromazine (0.75 mg/kg).
To induce a localized sterile inflammation, 0.1 ml of turpentine oil (Rectified Turpentine Oil for medical use, Gentry Corporation, Fair Lawn, N.J.) was injected into the left thigh muscle of anesthetized rats.
(§3) A further set of rats prepared as described in Examples 1 and 2 received intravenous injections of either ^123 IUdR (at a dose of about 1.5 mCi/rat) or gallium-67 citrate (at a dose of about 0.2 mCi/rat). After 1, 3 and 24 hours, rats from each group were anesthetized and imaged using a gamma camera (the General Electric STARCAM™ 400 fitted with parallel hole medium collimator). Anterior images were obtained 10^6 counts/frame except for the 24 h period for ^123 IUdR where a 15 min scan was carried out. A 20% window was present over the 159 keV photopeaks of ^67 Ga (93 kev, 184 keV, and 298 keV).
(§4) Regions of interest (ROI) were drawn over the inflamed areas (3×4 pixel) and over the contralateral area in each rat. Total counts in these regions were used to calculate Target to Background (T/B) ratios and to calculate Figure of Merit (FOM; statistical significance) values using either of the following equations:
(§5) FOM=(At -Ab)^2 /(At +Ab) (1)
(§6) At =counts in ROI (3×4) over pus capsule; and
(§7) Ab =counts in ROI (3×4) over contralateral muscle.
(§8) Equation (1) is derived from the Report of the National Council on Radiation Protection and Measurements, Nuclear Medicine, "Factors Influencing the Choice and Use of Radionuclides in Diagnosis and Therapy", Report No. 70, p.79 (NRCP, Bethesda, Md., 1982). Equation (2) is derived from Rubin et al., J. Nucl. Med. 30:385-389, 1989. For purposes of reference, the disclosures of each of these publications is incorporated herein.

[4] = test system: bacterial (E. coli) inflammatory lesions (pus capsule); test: Gamma camera imaging of rats with bacterial infection; assay type: in vivo; parameters: key to Figure of Merit (FOM), equation (1): FOM=(At-Ab)^2/(At+Ab), from total counts target vs background; conditions: for Figure of Merit (FOM), equation (1): 0.2 mCi ^67 Ga-citrate (n=3); for Figure of Merit (FOM), equation (1) / Pus Capsule to Contralateral Tissue (T/B) Ratio, gamma camera imaging: 1.5 mCi/rat ^123 IUdR (n=4); for Figure of Merit (FOM), equation (1) / Pus Capsule to Contralateral Tissue (T/B) Ratio, gamma camera imaging / Figure of Merit (FOM), equation (2): mean ± SD; for Pus Capsule to Contralateral Tissue (T/B) Ratio, gamma camera imaging: 0.2 mCi/rat ^67 Ga (n=3); for Figure of Merit (FOM), equation (2): n=3 (^67 Ga), n=4 (^123 IUdR)
Method: as §1, §2, §3, §4, §5, §6, §7, §8

For O=c1[nH]c(=O)n([C@H]2C[C@H](O)[C@@H](CO)O2)cc1[125I] [^125 IUdR], the “radioscintigraphic detection by biodistribution T/B ratios, compared with ^67 Ga (in words)” value ([1]; bacterial infection, 1 h, 3 h, and 24 h) was “better”, the “concentration within lesion (pus capsule) vs contralateral tissues (in words)” value ([1]; rat, in vivo) was “to a greater extent than in the contralateral tissues” and the “time of accumulation in target (inflamed) tissues” value ([1]; rat, in vivo) was at most 1 h. For the same compound, the “concentration within lesion (pus capsule) vs contralateral tissues (in words)” value ([2]; sterile inflammation (turpentine oil)) was “to a greater extent than in the contralateral tissues” and the “radioscintigraphic detection by biodistribution T/B ratios, compared with ^67 Ga (in words)” value ([2]; sterile inflammation, 3 h and 24 h) was “much better than ^67 Ga”.

In the case of O=c1[nH]c(=O)n([C@H]2C[C@H](O)[C@@H](CO)O2)cc1[123I] [^123 IUdR], the “detection of the lesion in scintigraphic images (in words)” value ([3]; 1, 3, and 24 h, i.v.) is reported as “can clearly detect the lesion”, the “Figure of Merit (FOM), equation (1)” value ([3]; 1 h, i.v.) is reported as 14444 ± 559 and the “Pus Capsule to Contralateral Tissue (T/B) Ratio, gamma camera imaging” value (“Pus Capsule … (T/B) Ratio, gamma camera imaging” below) ([3]; 1 h, i.v.) is reported as 4.13 ± 1.06. The “Figure of Merit (FOM), equation (2)” value ([3]; 1 h, i.v.) was 3.13 ± 0.53, the “Figure of Merit (FOM), equation (1)” value ([3]; 3 h, i.v.) was 750 + 268 and the “Pus Capsule … (T/B) Ratio, gamma camera imaging” value ([3]; 3 h, i.v.) was 3.33 ± 0.92. The “Figure of Merit (FOM), equation (2)” value ([3]; 3 h, i.v.) was 2.33 ± 0.46, the “efficacy by imaging T/B ratio, comparison of agents (in words)” value ([3]; 3 hrs) was “equal” and the “Figure of Merit (FOM), equation (1)” value ([3]; 24 h, i.v.) was 69 + 52. For the same compound, the “Pus Capsule … (T/B) Ratio, gamma camera imaging” value ([3]; 24 h, i.v.) was 3.07 ± 0.930, the “Figure of Merit (FOM), equation (2)” value ([3]; 24 h, i.v.) was 2.07 ± 1.46 and the “accumulation in target tissues, rate vs gallium-67 citrate (in words)” value ([3]; FIGS. 4 and 8 vs FIGS. 3 and 7) was “more quickly than did gallium-67 citrate”. For the same compound, the “radioscintigraphic detection by FOM, comparison of agents (in words)” value ([3]; early (i.e., 1 h)) was “superior agent”, the “radioscintigraphic detection by imaging T/B ratio, comparison of agents (in words)” value ([3]; early (i.e., 1 h)) was “superior to gallium-67” and the “detection of the lesion in scintigraphic images (in words)” value ([4]; 1, 3, and 24 h, i.v.) was “can clearly detect the lesion”. For the same compound, the “radioscintigraphic detection by FOM, comparison of agents (in words)” value ([4]; 1 h, 3 hrs, and 24 hrs) was “superior agent”, the “radioscintigraphic detection by imaging T/B ratio, comparison of agents (in words)” value ([4]; 1 h, 3 hrs, and 24 hrs) was “superior to gallium-67” and the “Figure of Merit (FOM), equation (1)” value ([4]; 1 h, i.v.) was 1770 ± 598. The “Pus Capsule … (T/B) Ratio, gamma camera imaging” value ([4]; 1 h, i.v.) was 3.72 ± 1.06, the “Figure of Merit (FOM), equation (2)” value ([4]; 1 h, i.v.) was 2.72 ± 0.53 and the “Figure of Merit (FOM), equation (1)” value ([4]; 3 h, i.v.) was 1507 ± 775. For the same compound, the “Pus Capsule … (T/B) Ratio, gamma camera imaging” value ([4]; 3 h, i.v.) was 3.53 ± 0.80, the “Figure of Merit (FOM), equation (2)” value ([4]; 3 h, i.v.) was 2.53 ± 0.40 and the “Figure of Merit (FOM), equation (1)” value ([4]; 24 h, i.v.) was 214 + 135. The “Pus Capsule … (T/B) Ratio, gamma camera imaging” value ([4]; 24 h, i.v.) was 5.35 ± 2.37 and the “Figure of Merit (FOM), equation (2)” value ([4]; 24 h, i.v.) was 4.35 ± 1.19.
